Reference: patent US6548053B1, “Control of intra-ocular pressure” (The University of Birmingham, priority 1999, dated 2003)

Tests used:
Format in all cases: in vivo, human
[1] = system: healthy male volunteers; assay: Clinical study: intra-ocular pressure (Goldmann applanation tonometer) under oral carbenoxolone; conditions: for reduction in IOP during the day (08:00 to 20:00 hrs): baseline reduction 0.38±1.16; for reduction in IOP during the day (08:00 to 20:00 hrs), percent: baseline 2.51%; for IOP of one subject vs days 1 and 2 (FIG. 3): both eyes
Protocol: (§1) A clinical study was undertaken to assess the functional significance of 11β-HSD within the eye by oral administration of carbenoxolone, a known inhibitor of both 11β-HSD1 and 11β-HSD2. The study was undertaken on eight healthy male volunteers who were not on any systemic or topical medications and had no family history of glaucoma. Baseline intra-ocular pressure readings were measured using the same Goldmann applanation tonometer at 08:00, 12:00, 16:00 and 20:00 hours on two consecutive days. Systolic and diastolic blood pressures were also measured at each time point. Venous blood was analysed for serum electrolytes on day one and urine was collected for 24-hour urinary free cortisol and GC/MS for cortisol/cortisone ratios. The subjects then commenced a course of 100 mg carbenoxolone taken orally three times a day for seven consecutive days. The IOP measurements and blood pressure recordings were repeated at each time point on the third and seventh day of carbenoxolone ingestion (i.e. days five and nine of the study). Urea and electrolytes were also measured on these days and inhibition of 11β-HSD was confirmed by comparing the original urinary F/E ratio with that from urine aliquoted from a further 24-hour collection performed between days six and seven of ingestion. […] There was no difference between each eye of each subject. The IOP was lower on day seven of ingestion (11.50±2.08) than on day three (12.48±1.48) compared with the mean baseline values (p<0.0001 for both days), the difference between days three and seven being significant (p<0.001). There was also a small reduction in intra-ocular pressure during the course of the day, i.e. from 08:00 hrs to 20:00 hrs (baseline reduction of0.38±1.16 (2.51%), p=0.076).

[2] = system: 11β-HSD; assay: Clinical study: urinary free cortisol and GC/MS urinary steroid ratios confirming inhibition of 11β-HSD
Protocol: as §1, with “In addition, there” for “There”, “a significant decrease in” for “no difference between each eye of each subject. The IOP was lower on day seven of ingestion (11.50±2.08) than on day three (12.48±1.48) compared with”, “tetrahydrocortisol (THF)+allo-THF/tetrahydrocortisone (THE) ratio (pre-THF+allo-THF/THE=0.92±0.23, per-THF+allo-THF/THE=0.7±0.19, p=0.0012). This reflects” for “mean baseline values (p<0.0001 for both days),”, “relative 11β-HSD1/HSD2 activities predominantly” for “difference between days three and seven being significant (p<0.001). There was also a small reduction”, “in” for “in intra-ocular pressure during”, “liver.” for “course of the day, i.e. from 08:00 hrs to 20:00 hrs (baseline reduction of0.38±1.16 (2.51%), p=0.076).”

[3] = Clinical study: systolic and diastolic blood pressure and serum electrolytes; conditions: throughout the study, 100 mg orally three times a day for seven days
Protocol: A clinical study was undertaken to assess the functional significance of 11β-HSD within the eye by oral administration of carbenoxolone, a known inhibitor of both 11β-HSD1 and 11β-HSD2. The study was undertaken on eight healthy male volunteers who were not on any systemic or topical medications and had no family history of glaucoma. Baseline intra-ocular pressure readings were measured using the same Goldmann applanation tonometer at 08:00, 12:00, 16:00 and 20:00 hours on two consecutive days. Systolic and diastolic blood pressures were also measured at each time point. Venous blood was analysed for serum electrolytes on day one and urine was collected for 24-hour urinary free cortisol and GC/MS for cortisol/cortisone ratios. The subjects then commenced a course of 100 mg carbenoxolone taken orally three times a day for seven consecutive days. The IOP measurements and blood pressure recordings were repeated at each time point on the third and seventh day of carbenoxolone ingestion (i.e. days five and nine of the study). Urea and electrolytes were also measured on these days and inhibition of 11β-HSD was confirmed by comparing the original urinary F/E ratio with that from urine aliquoted from a further 24-hour collection performed between days six and seven of ingestion.
There was no difference between each eye of each subject. […]

CC1(C)[C@@H](OC(=O)CCC(=O)O)CC[C@]2(C)[C@H]3C(=O)C=C4[C@@H]5C[C@@](C)(C(=O)O)CC[C@]5(C)CC[C@@]4(C)[C@]3(C)CC[C@@H]12 [carbenoxolone]
reduction in IOP during the day (08:00 to 20:00 hrs) ([1]; day seven of ingestion, p=0.0006): 2.25±1.91 | reduction in IOP during the day (08:00 to 20:00 hrs), percent ([1]; day seven of ingestion): 17.31% | reduction in IOP during the day (08:00 to 20:00 hrs) ([1]; day three of ingestion, p=0.0058): 0.86±0.83 | reduction in IOP during the day (08:00 to 20:00 hrs), percent ([1]; day three of ingestion): 6.51% | per-IOP (mean IOP on ingesting carbenoxolone) ([1]; eight subjects, 100 mg orally three times a day, pre-IOP 14.7±1.39): 12.00±1.87 | IOP on day seven of ingestion ([1]; eight subjects, day seven of ingestion (study day 9), p<0.0001 vs mean baseline): 11.50±2.08 | IOP on day three of ingestion ([1]; eight subjects, day three of ingestion (study day 5), p<0.0001 vs mean baseline): 12.48±1.48 | subjects showing a decrease in IOP ([1]; eight subjects, drop significant in seven individuals (<0.01)): All eight subjects showed a decrease in IOP | overall reduction in IOP ([1]; mean of eight subjects, 100 mg orally three times a day for seven days, vs pre-IOP 14.7±1.39, p<0.000001): 18.2% | IOP of one subject vs days 1 and 2 (FIG. 3) ([1]; day 5 (third day of ingestion)): generally lower | IOP of one subject vs days 1 and 2 (FIG. 3) ([1]; day 9 (seventh day of ingestion)): even lower | 24-hour urinary free cortisol ([2]; 24-hour urine between days six and seven of ingestion vs baseline): no significant change | per-F/E (urinary cortisol/cortisone ratio by GC/MS) ([2]; 24-hour urine between days six and seven of ingestion, pre-F/E 0.497±0.189, p=0.004): 1.144±0.382 | per-THF+allo-THF/THE ratio ([2]; urine on ingestion, pre value 0.92±0.23, p=0.0012): 0.7±0.19 | serum electrolytes [3]: remained stable | systolic and diastolic blood pressures [3]: remained stable
